Biological target: T1, isoenzyme 1 of barley α-amylase (AMY1) (Hordeum vulgare, UniProt P00693)
T1 construct: made in house; host or cells: Pichia pastoris
Assay: X-ray crystal structure of the AMY1/spermidine complex (cocrystallisation with spermidine, then soaking in acarbose)
Format: binding
Description: The 9 C-terminal residues of recombinant isoenzyme 1 of barley α-amylase (AMY1) were cleaved in order to obtain a C-terminal end of the same length as that of isoenzyme 2 (AMY2). The protein was then over-expressed in Pischia pastoris, purified and concentrated.
The protein preparation used for crystallisation has a concentration of 5.1 mg/ml and is in a solution of 10 mM MES (2-[N]-Morpholino ethane sulphonic acid), 100 mM CaCl2, 0.02% NaN3, pH 6.7.
The crystals were obtained by cocrystallisation thanks to the vapour diffusion principle using the hanging droplet technique. To do this, 2.5 μl of polyethylene glycol 8000 at 21% as a precipitating agent and 0.5 μl of a 0.1M solution of spermidine as a crystallisation additive were added to 2 μl of the protein solution described previously. This droplet was equilibrated at 19° C. against a reservoir containing 500 μl of polyethylene glycol 8000 at 21%.
The crystals were then immersed for 20 hours in a polyethylene glycol 8000 solution at 21% containing 10 mM of acarbose (a pseudo-tetrasaccharide).
Collection of the diffraction data was carried out using an X-ray generator (CuKα radiation—wavelength 1.5418 Å) with a rotating anode (Nonius 581) operating at 40 kV and 90 mA (i.e. 3.6 kW) with a graphite monochromator coupled to a two-dimensional detector of Image Plate type (MarResearch 345) of 34.5 cm in diameter.
A set of 180 diffraction exposures (each corresponding to 1° of oscillation of the crystal) was collected at 15° C., the crystal being capillary mounted and positioned at 120 mm from the detector, with an exposure time of the crystal to the X-rays of 500s per exposure. The highest resolution of this set of data is 2.44 Å.
We then determined the space group as being a P212121. The asymmetrical unit is composed of a molecule of the AMY1/spermidine complex, which corresponds to a volume of solvent in the lattice of 53%.
Subsequent processing of the data was carried out using the CCP4 suite of programs (CCP4, 1994).
The molecular replacement method was used thanks to the AmoRe software (Navaza, 1994) using the structure of isoenzyme 2 of barley α-amylase (AMY2-accession code PDB: 1AMY) (Kadziola et al., 1994 and Kadziola et al., 1998) as a guide model because of the significant sequence homology (80%) between this initial model and our protein of interest (AMY1). Refinement phases using molecular dynamic techniques (simulated annealing—Brünger et al., 1990) were carried out with CNS software version 0.9a (Brünger et al., 1998) alternating with model manipulations. […] In order to do this, 2Fo-Fc and Fo-Fc electronic density maps were calculated. […]

[1] = experimental AMY1/spermidine complex

T1 sequence (P00693 25-429 limits assumed): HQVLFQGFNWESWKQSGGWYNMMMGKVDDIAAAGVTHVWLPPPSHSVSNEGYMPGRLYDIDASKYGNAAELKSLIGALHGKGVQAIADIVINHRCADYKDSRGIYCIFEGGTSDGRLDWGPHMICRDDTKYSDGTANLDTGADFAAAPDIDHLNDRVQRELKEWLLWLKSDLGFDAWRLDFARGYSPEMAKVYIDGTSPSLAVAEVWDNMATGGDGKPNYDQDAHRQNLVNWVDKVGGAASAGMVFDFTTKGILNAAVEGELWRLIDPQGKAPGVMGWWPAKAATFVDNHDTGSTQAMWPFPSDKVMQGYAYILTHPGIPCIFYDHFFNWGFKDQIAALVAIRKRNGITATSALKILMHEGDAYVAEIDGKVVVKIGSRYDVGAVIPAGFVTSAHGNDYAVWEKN

Direct hydrogen bonds with a residue [1]: 5
Direct hydrogen bonds with a water molecule [1]: 4
total of H bonds stabilising the complex (experimental AMY1/spermidine structure): 9
SMILES: NCCCCNCCCN [spermidine]
affinity for the enzyme compared with acarbose type inhibitors (in the presence of the two types of inhibitors (spermidine and acarbose)): significantly greater affinity for the enzyme in comparison to the acarbose type inhibitors
